Data published in PubChem BioAssay AID270 (DTP/NCI, 2004).
Several values for one entry are separate records, joined by “and”; a condition that tells them apart may be missing. Identical values can stand only once. Results filed as inconclusive are left out.

Tested on: BDF1 mice, s.c. Lewis lung carcinoma, T/C %
Test: NCI In Vivo Anticancer Drug Screen. Data for tumor model Lewis Lung Carcinoma (subcutaneous) in B6D2F1 (BDF1) mice
Method: The antitumor activity of compounds was measured in mice bearing transplantable tumors. Survival or tumor size were measured and the results are expressed as the measurement made in the treated group (T) divided by the measurement made in the vehicle treated control group (C). The tumor model used in this assay is Lewis Lung Carcinoma (subcutaneous) in B6D2F1 (BDF1) mice

[1] = endpoint: median survival time, dose: 12.5 mg/kg/injection, schedule: Q01DX009 (ip), vehicle: Klucel (hydroxypropylcellulose) (HPC), higher = longer survival
[2] = endpoint: median survival time, dose: 25.0 mg/kg/injection, schedule: Q01DX009 (ip), vehicle: Klucel (hydroxypropylcellulose) (HPC), higher = longer survival

Structure (SMILES): [N-]=[N+]=CC(=O)CCC(N)C(=O)O (stereo not given)
- T/C (endpoint: median survival time, dose: 0.1 mg/kg/injection, schedule: Q01DX009 (ip), vehicle: saline, higher = longer survival): 121 % of control
- T/C (endpoint: median survival time, dose: 0.2 mg/kg/injection, schedule: Q01DX009 (ip), vehicle: saline, higher = longer survival): 110 % of control
- T/C (endpoint: median survival time, dose: 94.0 mg/kg/injection, schedule: Q01DX001 (ip), vehicle: saline, higher = longer survival): 120 % of control
- T/C (endpoint: median survival time, dose: 210.0 mg/kg/injection, schedule: Q01DX001 (ip), vehicle: saline, higher = longer survival): 107 % of control

Structure (SMILES): Cc1ccc(N2CCN(CCCN3CCN(c4ccc(Cl)cc4)CC3)CC2)cc1
- T/C (endpoint: mean tumor weight, dose: 12.5 mg/kg/injection, schedule: Q01DX011 (ip), vehicle: other, higher = larger tumour): 66 % of control
- T/C (endpoint: mean tumor weight, dose: 25.0 mg/kg/injection, schedule: Q01DX011 (ip), vehicle: other, higher = larger tumour): 108 % of control
- T/C (endpoint: mean tumor weight, dose: 50.0 mg/kg/injection, schedule: Q01DX011 (ip), vehicle: other, higher = larger tumour): 70 % of control
- T/C (endpoint: mean tumor weight, dose: 100.0 mg/kg/injection, schedule: Q01DX011 (ip), vehicle: other, higher = larger tumour): 50 % of control

Structure (SMILES): COc1cc(C2c3cc4c(cc3CC3COC(=O)C32)OCO4)cc(OC)c1O (stereo not given)
- T/C (endpoint: median survival time, dose: 0.5 mg/kg/injection, schedule: Q01DX009 (ip), vehicle: saline with Tween-80, higher = longer survival): 104 % of control
- T/C (endpoint: median survival time, dose: 1.0 mg/kg/injection, schedule: Q01DX009 (ip), vehicle: saline with Tween-80, higher = longer survival): 101 % of control
- T/C (endpoint: median survival time, dose: 2.0 mg/kg/injection, schedule: Q01DX009 (ip), vehicle: saline with Tween-80, higher = longer survival): 107 % of control

Structure (SMILES): CC1OC(Oc2c(-c3cc(O)c(O)c(O)c3)oc3cc(O)cc(O)c3c2=O)C(O)C(O)C1O (stereo not given)
- T/C (endpoint: mean tumor weight, dose: 100.0 mg/kg/injection, schedule: Q01DX011 (ip), vehicle: carboxymethylcellulose (CMC), higher = larger tumour): 59 % of control
- T/C (endpoint: mean tumor weight, dose: 200.0 mg/kg/injection, schedule: Q01DX011 (ip), vehicle: carboxymethylcellulose (CMC), higher = larger tumour): 49 % of control
- T/C (endpoint: mean tumor weight, dose: 400.0 mg/kg/injection, schedule: Q01DX011 (ip), vehicle: carboxymethylcellulose (CMC), higher = larger tumour): 50 % of control

Structure (SMILES): COc1cc2c(cc1Oc1c(Oc3c(O)c(OC)cc4c3C(CC(C)C)N(C)CC4)c(OC)cc3c1C(CC(C)C)N(C)CC3)C(CC(C)C)N(C)CC2 (stereo not given)
- T/C [1]: 92 % of control
- T/C [2]: 98 % of control
- T/C (endpoint: median survival time, dose: 50.0 mg/kg/injection, schedule: Q01DX009 (ip), vehicle: Klucel (hydroxypropylcellulose) (HPC), higher = longer survival): 88 % of control

Structure (SMILES): CCOC(=O)C(=CNc1cccc(Cl)c1)C(=O)OCC
- T/C (endpoint: mean tumor weight, dose: 148.0 mg/kg/injection, schedule: Q01DX011 (ip), vehicle: other, higher = larger tumour): 153 % of control
- T/C (endpoint: mean tumor weight, dose: 222.0 mg/kg/injection, schedule: Q01DX011 (ip), vehicle: other, higher = larger tumour): 113 % of control

Structure (SMILES): O=C(NO)c1ccccc1O
- T/C (endpoint: median survival time, dose: 6.25 mg/kg/injection, schedule: Q01DX009 (ip), vehicle: saline, higher = longer survival): 109 % of control
- T/C (endpoint: median survival time, dose: 12.5 mg/kg/injection, schedule: Q01DX009 (ip), vehicle: saline, higher = longer survival): 106 % of control
- T/C (endpoint: median survival time, dose: 25.0 mg/kg/injection, schedule: Q01DX009 (ip), vehicle: saline, higher = longer survival): 108 % of control
- T/C (endpoint: median survival time, dose: 50.0 mg/kg/injection, schedule: Q01DX009 (ip), vehicle: saline, higher = longer survival): 103 % of control
- T/C (endpoint: median survival time, dose: 400.0 mg/kg/injection, schedule: Q01DX009 (ip), vehicle: saline with Tween-80, higher = longer survival): 113 % of control

Structure (SMILES): C[C@]12CC[C@H]3[C@@H](CC[C@]4(O)C[C@@H](O)CC[C@]34C=O)[C@@]1(O)CC[C@@H]2C1=CC(=O)OC1
- T/C (endpoint: median survival time, dose: 3.12 mg/kg/injection, schedule: Q01DX009 (ip), vehicle: Klucel (hydroxypropylcellulose) (HPC), higher = longer survival): 87 % of control
- T/C [1]: 113 % of control
- T/C [2]: 116 % of control

Structure (SMILES): C[C@H]1CC[C@@]2(NC1)O[C@H]1C[C@H]3[C@@H]4CC[C@H]5C[C@@H](O)CC[C@]5(C)[C@H]4CC[C@]3(C)[C@H]1[C@@H]2C
- T/C (endpoint: mean tumor weight, dose: 3.13 mg/kg/injection, schedule: Q01DX011 (sc), vehicle: steriod suspending solution, higher = larger tumour): 83 % of control
- T/C (endpoint: mean tumor weight, dose: 6.25 mg/kg/injection, schedule: Q01DX011 (sc), vehicle: steriod suspending solution, higher = larger tumour): 108 % of control
- T/C (endpoint: mean tumor weight, dose: 12.5 mg/kg/injection, schedule: Q01DX011 (sc), vehicle: steriod suspending solution, higher = larger tumour): 96 % of control
- T/C (endpoint: mean tumor weight, dose: 25.0 mg/kg/injection, schedule: Q01DX011 (sc), vehicle: steriod suspending solution, higher = larger tumour): 96 % of control and 105 % of control
- T/C (endpoint: mean tumor weight, dose: 50.0 mg/kg/injection, schedule: Q01DX011 (sc), vehicle: steriod suspending solution, higher = larger tumour): 119 % of control
- T/C (endpoint: mean tumor weight, dose: 100.0 mg/kg/injection, schedule: Q01DX011 (sc), vehicle: steriod suspending solution, higher = larger tumour): 117 % of control
- T/C (endpoint: mean tumor weight, dose: 200.0 mg/kg/injection, schedule: Q01DX011 (sc), vehicle: steriod suspending solution, higher = larger tumour): 110 % of control
- T/C (endpoint: mean tumor weight, dose: 400.0 mg/kg/injection, schedule: Q01DX011 (sc), vehicle: steriod suspending solution, higher = larger tumour): 93 % of control
